Test results published in US20090029943A1, “Glucosamine and Derivatives Thereof Useful as TG Inhibitors” (priority 2005, published 2009).
“Also recorded” adds a separate entry of the source.

Key:
[1] = target: T1, transglutaminase in LPS-activated microglia cells (Mus musculus, UniProt P21981); test: Intracellular transglutaminase activity in LPS-activated BV2 microglia (14C-putrescine incorporation); assay type: cell-based, murine; conditions: LPS 24 hrs; glucosamine 1, 10 or 100 mM; FIG. 3B
T1 construct: In order to detect the intracellular activity of transglutaminase, the cells were incubated for 24 hrs; endogenous in cells
T1 sequence (P21981 1-686): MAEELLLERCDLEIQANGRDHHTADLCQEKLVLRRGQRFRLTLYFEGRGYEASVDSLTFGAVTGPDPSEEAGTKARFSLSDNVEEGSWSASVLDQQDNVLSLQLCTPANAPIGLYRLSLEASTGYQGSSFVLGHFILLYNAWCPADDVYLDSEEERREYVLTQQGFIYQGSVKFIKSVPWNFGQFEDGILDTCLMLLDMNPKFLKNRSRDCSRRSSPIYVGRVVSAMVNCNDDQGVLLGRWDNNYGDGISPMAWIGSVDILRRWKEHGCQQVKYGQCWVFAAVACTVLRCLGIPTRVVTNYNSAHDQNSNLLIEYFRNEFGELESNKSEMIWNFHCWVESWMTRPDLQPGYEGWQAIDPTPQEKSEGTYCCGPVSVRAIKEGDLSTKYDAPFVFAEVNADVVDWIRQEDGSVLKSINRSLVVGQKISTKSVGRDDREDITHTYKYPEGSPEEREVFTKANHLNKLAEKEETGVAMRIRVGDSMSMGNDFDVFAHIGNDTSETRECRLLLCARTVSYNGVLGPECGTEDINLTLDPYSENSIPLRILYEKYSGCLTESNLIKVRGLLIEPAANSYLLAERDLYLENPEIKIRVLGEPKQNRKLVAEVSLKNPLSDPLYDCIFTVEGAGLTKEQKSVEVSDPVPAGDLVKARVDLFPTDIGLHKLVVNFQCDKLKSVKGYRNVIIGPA

[2] = target: T2, purified transglutaminase enzyme (Sigma T5398) (UniProt P08587); test: In vitro assay for inhibition of transglutaminase activity (14C-putrescine incorporation into succinylated casein); assay type: biochemical; conditions: glucosamine 1, or 100 mM; 37° C., 1 hour; FIG. 2
T2 construct: purchased Sigma T5398
T2 sequence (P08587 1-690): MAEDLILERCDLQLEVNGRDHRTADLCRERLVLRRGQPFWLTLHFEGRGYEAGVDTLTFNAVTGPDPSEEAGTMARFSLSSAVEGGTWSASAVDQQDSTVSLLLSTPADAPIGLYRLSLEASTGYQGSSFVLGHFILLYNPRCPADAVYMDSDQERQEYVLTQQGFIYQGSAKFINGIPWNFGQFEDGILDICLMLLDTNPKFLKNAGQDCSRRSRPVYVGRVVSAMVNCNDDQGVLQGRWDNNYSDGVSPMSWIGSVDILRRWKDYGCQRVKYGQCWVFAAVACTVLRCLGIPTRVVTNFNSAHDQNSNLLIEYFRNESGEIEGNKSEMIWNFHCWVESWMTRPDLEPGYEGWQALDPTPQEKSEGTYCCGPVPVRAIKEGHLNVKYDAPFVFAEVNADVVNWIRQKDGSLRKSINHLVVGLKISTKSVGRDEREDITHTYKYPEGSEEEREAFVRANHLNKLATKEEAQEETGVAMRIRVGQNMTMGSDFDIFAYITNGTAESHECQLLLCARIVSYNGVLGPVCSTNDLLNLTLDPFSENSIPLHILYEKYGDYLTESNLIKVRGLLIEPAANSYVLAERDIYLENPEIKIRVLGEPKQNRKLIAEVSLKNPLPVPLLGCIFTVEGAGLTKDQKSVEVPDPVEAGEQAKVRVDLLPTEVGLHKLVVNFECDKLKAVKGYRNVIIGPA
Procedure: Consequently, glucosamine and derivatives thereof are transglutaminase inhibitors.
In the presence of various concentrations of […], which competes with putrescine, the reaction between [1,4-^14C] putrescine and succinylated casein, catalyzed by transglutaminase, was observed.
A reaction buffer (0.5 ml) was prepared as follows: 0.1 M triacetate pH 7.5, 1% succinylated casein, 1 mM EDTA, 10 mM CaCl2, 0.5% lubrol PX, 5 mM DTT, 0.15 M NaCl and 0.5 mCi [1,4-^14C] putrescine (Dupont-New England Nuclear; 118 Ci/mole). To this reaction buffer were added 2 μl of a purified transglutaminase enzyme (Sigma T5398), glucosamine and a 50 mM Tris-acetate buffer so as to yield a final volume of 100 μl, having a glucosamine concentration of 1, or 100 mM. Mixing was followed by reaction at 37° C. for 1 hour before termination with 4.5 ml of cold (4° C.) 7.5% TCA. The TCA-precipitates thus formed were filtered through a GF/glass fiber filter, washed with 10 volumes of 5% TCA and dried, followed by measuring transglutaminase-catalyzed ^14C-putrescine-labelled casein with a β-counter.
The relative inhibition activities (%) of glucosamine against transglutaminase are depicted in FIG. 2.

[3] = tested on: transglutaminase in SH-SY5Y/TG cells (I-κBα level); test: I-κBα Western blotting in SH-SY5Y/TG neuroblastoma cells; assay type: cell-based, human; conditions: 10 mM glucosamine, 3 hrs, cytosol fraction; FIG. 4A
Procedure: For use in the transfection of transglutaminase, the human neuroblastoma cell SH-SY5Y was purchased from American Type Culture Collection. SH-SY5Y was cultured in DMEM (Dulbecco's modified Eagle's Medium)/Ham F12 medium (50:50) supplemented with 10% heat-inactivated fetal bovine serum, glutamine, and penicillin/streptomycin. In order to avoid clonal mutation, an Flp-In™ system (Invitrogen, Co) was introduced. SH-SY5Y transformed with a mock vector was used as a […] (Wild) while a full-length transglutaminase gene was cloned in a pcDNA5/FRT vector to prepare SH-SY5Y/TG. Allowing NF-kB to be usually active therein (J. Biol. Chem. 279, 53725-53735, 2004), the strain thus constructed is widely used as an NF-kB activation model based on the overexpression of transglutaminase. […] The inhibitory effects of putative transglutaminase inhibitors were investigated by incubating SH-SY5Y/TG cells in the presence of 10 mM glucosamine (GM), 200 μM cystamine (CTM), and 2 nM iodoacetamide (IAA) for 3 hrs, followed by obtaining cytosol fractions with the aid of a nuclear extraction kit (Sigma) from the cells. As a negative control, a cytosol fraction obtained from a cell culture incubated in the absence of any transglutaminase inhibitor was used (Ct). […]

[4] = tested on: iNOS (NF-kB-inducible) in LPS-activated BV2 microglia; test: iNOS Western blotting in LPS-activated BV2 microglia cells; assay type: cell-based, murine; conditions: LPS 100 ng/ml 24 hrs; glucosamine 1, 10 or 100 mM; FIG. 3A
Procedure: The inhibitory effects of glucosamine on transglutaminase were determined by monitoring the activity of the transcriptional factor NF-kB through the measurement of level of NF-kB-inducible iNOS.
The cells were maintained in DMEM (Dulbecco's Modified Eagle's medium) (Invitrogen) supplemented with 10% fetal bovine serum and penicillin/streptomycin in a 5% CO2, 37° C. incubator. BV-2 was activated by treatment with LPS (100 ng/ml; Sigma) for 24 hrs.
In order to detect the intracellular activity of transglutaminase, the cells were incubated for 24 hrs in a medium supplemented with 4.5 nmoles of ^14C-putrescine (1.11×10^6 dpm)/ml. Cells were grouped according to treatment without or with 1, 10 or 100 mM of glucosamine. Following LPS treatment for 24 hrs, cells in each group were homogenized with a radioimmunoprecipitation assay buffer (1×PBS, 1% Nonidet P-40, 0.5% sodium deoxycholate and 0.1% SDS) containing a protease inhibitor. The homogenates were centrifuged at 100,000×g for 1 hr. and the supernatants were subjected to iNOS Western blotting.
After being separated from a 10˜20% gradient SDS gel using Tricine buffer (Invitrogen), the Western blotting samples were transferred onto polyvinylidene difluoride membrane (Invitrogen). Western blotting was conducted as usual. […]

## N[C@H]1C(O)O[C@H](CO)[C@@H](O)[C@@H]1O (stereo partly shown) [glucosamine]
[1]
  activity of transglutaminase in LPS-activated microglia: inhibited in a glucosamine dose-dependent manner
[2]
  activity of transglutaminase (relative inhibition activity): poorer activity of transglutaminase; also recorded: inhibited in a glucosamine dose-dependent manner
[3]
  transglutaminase inhibition shown by level of expression of I-κBα: identified as a transglutaminase inhibitor
[4]
  level of expression of iNOS: reduces the level of expression of iNOS
